The source of these data is US11247994B2, “6-dithio-substituted-2′-deoxyguanosine compound, preparation method thereof and use thereof” (ZHEJIANG UNIVERSITY, priority 2018, dated 2022).

As usually defined, the IC50 is the concentration that inhibits the measured activity by half.

The structures appear in SMILES notation. Bounds are passed on as bounds.

Data set [1] concerns NCM460. The data set can be described thus: MTT assay, cell growth inhibition, NCM460. The format is cell-based. Conditions: Homo sapiens, 48 hours, read-out: Tumor cell growth inhibition IC50, NCM460. The essentials:
(§1)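 48 h compound exposure, MTT 4 h, OD 570 nm. DMSO final <0.1%; blank- and solvent-corrected viability; IC50 by variable-slope fit.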
A general note: Formazan colour is commonly taken as a measure of viable cells.

Data set [2] is described as follows: Blood biochemical analysis and HE staining of tissues in HCT116 tumor-bearing nude mice. In kind it is in vivo. The conditions noted are these: tail vein once every two days, 12 times, blood 48 hours after the last treatment.
Data set [3] relates to human melanoma cells A375. The data set can be described thus: MTT assay, tumor cell growth inhibition, A375. The format is cell-based. Conditions: A-375, 48 hours. The essentials:
as §1

The subject of data set [4] is human colon cancer cell line HCT116 subcutaneous transplanted tumor. The data set can be described thus: Tumor-bearing test in nude mice, HCT116 subcutaneous transplanted tumor (tumor volume, TUNEL). The format is in vivo. The conditions noted are these: HCT116 model.
Data set [5] deals with human breast cancer cells Bcap37. The experiment in a line: MTT assay, tumor cell growth inhibition, Bcap37. The format is cell-based. The conditions noted are these: 48 hours. The essentials: as §1
Data set [6] relates to human liver cancer cells HepG2. The experiment in a line: MTT assay, tumor cell growth inhibition, HepG2. Conditions: 48 hours. In kind it is cell-based. The method, boiled down: as §1
Data set [7] has as its system human melanoma cell A375 tumor. The data set can be described thus: Human melanoma cell A375 tumor-bearing mouse model, antitumor effect. In kind it is in vivo, nude mice. The conditions noted are these: compound D 10 mg/kg, DTIC 20.4 mg/kg (4 times molar), 6-thio-dG+PX12 at twice the molar amount. As to the method: 2) Human Melanoma Cell A375 Tumor-Bearing Mouse Model
We further studied the inhibitory effect of the compound D on human malignant melanoma by using A375 tumor-bearing mouse model. The method was basically the same as above. Dacarbazine (DTIC) is the first-line drug for melanoma. The designed administration groups were: compound D 10 mg/kg group; 6-thio-dG+PX12 combined drug group (the dose is equivalent to twice the molar amount of the compound D); DTIC 20.4 mg/kg group (the dose is equivalent to 4 times the molar amount of the compound D) and blank solvent group.

Data set [8] concerns human colon cancer cells HCT116. The experiment in a line: MTT assay, tumor cell growth inhibition, HCT116. The conditions noted are these: HCT-116, 48 hours. In kind it is cell-based. The essentials: as §1

Regarding `CC(C)SSc1nc(N)nc2c1ncn2[C@H]1C[C@H](O)[C@@H](CO)O1` [D, 6-(isopropyldithio)-2′-deoxyguanosine], in data set [1], the IC50 was over 1000 µM. In data set [2], the Alanine aminotransferase is listed as 28.2 U/L, the Albumin is 25.0 g/L, the Alkaline phosphatase was 31.5 U/L and the Aspartate aminotransferase stood at 122.2 U/L. Moreover, in data set [2], the BUN amounted to 8.80 mmol/L, the Chloride ion came to 115.3 mmol/L, the Creatine kinase is 1597 U/L and the Creatinine was -3.0 µmol/L. In data set [2], this compound had a Glucose of 3.51 mmol/L, a Potassium ion of 6.43 mmol/L, a Sodium ion of 157.5 mmol/L and a Total bilirubin of -1.00 µmol/L. In data set [2], this compound returned a Total cholesterol of 3.21 mmol/L, a Total protein of 54.2 g/L and a Triglyceride of 0.70 mmol/L. It took 0.37 µM to reach half-maximal inhibition in data set [3] (IC50). For the same compound, the “Extent of apoptosis in tumor tissue (TUNEL staining, rank order)” value in data set [4] (frozen tumor sections, DAPI and TUNEL, G group = blank) is recorded as “D group>A group≈B group≈E group (6-thio-dG group)>C group>F group (PX-12 group)>G group (KB group)”. Moreover, the “Inhibitory effect on the growth of subcutaneous transplanted tumor tissue in nude mice (rank order, from slope of tumor volume)” value in data set [4] (tail vein once every two days for 24 days, compound A 2 mg/kg first 8 times, 10 mg/kg last 4 times, others equimolar, KB = blank) is listed as “D>B≈A≈6-thio-dG>PX-12>C>KB”. Further, in data set [4] (tail vein once every two days for 24 days, equimolar doses), the “Ability to inhibit the growth of transplanted tumor tissue compared with positive controls” value is “stronger than that of positive control 6-thio-dG and PX-12”. The same compound displayed a concentration for half-maximal inhibition (IC50) in data set [5] of 22.8 µM. Besides, the 50% inhibitory concentration (IC50) in data set [6] is under 10 µM. For the same compound, the “Antitumor effect (tumor volume) compared with controls” value in data set [7] was “significantly higher than that of DITC”. The compound further showed a half-maximal inhibitory concentration (IC50) in data set [8] of 1.09 µM.
